According to US9623008B2, “Targeting abnormal DNA repair in therapy-resistant breast and pancreatic cancers” (STC.UNM, priority 2012, dated 2017):
“Also recorded” adds a separate entry of the source. Where two headings read alike, the source gives them in different places.

Assays:
Assay type in all cases: cell-based
breast cancer cell lines = test: MTT cell proliferation assay, breast cancer cell lines; conditions: single agents, all the breast cancer cell lines, 72 hours; read-out: IC50, growth and viability
Description: (§1) Cells were grown in 96-well plates with DNA ligase I/III inhibitor L67 (up to 60 μmol/L) and/or the PARP inhibitor ABT888 (up to 80 μmol/L) for 72 hours. Approximately 20 hours prior to evaluation, MTT labeling reagent (MTT in PBS; Roche) was added to each well. After incubating for 4 hours with the MTT labeling reagent, solubilization solution (10% SDS in 0.01 mol/L HCl; Roche) was added to solubilize the formazan salt crystals. The results were spectrophotometrically quantified by a VersaMax Microplate Reader at a wavelength of 550 nm and a reference wavelength of 650 nm. The effect of combining the DNA repair inhibitors was analyzed by determining the combination index (CI) described by Chou and Talalay (18, 19) with Calcusyn software (version 2.0; Biosoft). This calculation takes into account of both potency (median dose, Dm or IC50) and the shape of the dose-effect curve (the m value) to calculate the CI. L67 and ABT888 were combined at fixed ratios of doses that corresponded to 0.0001, 0.001, 0.005, 0.01, 0.05, 0.1, 0.5, 1, and 10 times the individual IC50 values. Synergy, additivity, and antagonism are defined as CI<1, CI ¼ 1, and CI>1, respectively.

MCF10A = test: MTT cell proliferation assay, MCF10A; conditions: single agents, 72 hours, read-out: IC50, growth
Description: as §1

[1] = test system: tumorigenic cell lines (MCF7, TAM1, TAM2, TAM3, LTLT); test: Colony survival assay, MCF7 and therapy-resistant derivatives; conditions: L67 0.5 μmol/L or ABT888 0.125 μmol/L alone, 10-day growth, compared with MCF10A
Description: (§2) Cells were seeded at a density of 1,000 cells per well in methylcellulose-based medium in the presence of DNA ligase I/III inhibitor, L67 (0.5 μmol/L; ref. 10); PARP inhibitor, ABT888 (0.125 μmol/L); or L67 (0.5 μmol/L) and ABT888 (0.125 μmol/L) for approximately 10 days. Colonies were stained with 2-(4-iodophenyl)-3-(4-nitrophenyl)-5-phenlytetrazolium chloride (1 mg/mL) for 16 to 24 hours before evaluation. Vital colonies were counted with an automated image analysis system (Omincon FAS IV, BIOSYS GmbH). Experiments were conducted at least 3 times, and results are representative of the mean of 3 independent experiment ±SEM.

[2] = test system: MCF7 cells following siRNA knockdown of Ku70; test: Colony survival assay, MCF7 after siRNA knockdown of Ku70; conditions: Ku70 knockdown versus siRNA control, 1 μmol/L, 10-day growth
Description: as §2
Target plus SMART pool siRNA oligonucleotides for G22P1, DNA ligase III, and Ku70 mRNAs were purchased from Dharmacon RNA Technologies. The oligonucleotides were transiently transfected into cells with Amaxa Nucleofector Kit V (VCA-1003) in Nucleofector II Amaxa Biosystems. For transfection, […] of 20 μmol/L siRNA was used per 2×10^6 cells. […] Cells were harvested for Western blotting 72 hours after transfection. siRNA nontargeting pool (Dharmacon RNA Technologies) was used as a control.

SMILES | IC50 (breast cancer cell lines) | IC50 (MCF10A; Homo sapiens, MCF-10A) | colony survival, inhibitor alone [1] | IC50 (MCF10A) | sensitivity (colony survival) [2]
C[C@]1(c2nc3c(C(N)=O)cccc3[nH]2)CCCN1 [ABT888, Veliparib] | ~8 µM | ~10 µM | small reductions |  | 
Cc1c(Br)cc(NCC(=O)NN=Cc2cc([N+](=O)[O-])ccc2O)cc1Br [L67] | ~6 µM |  | small reductions; also recorded: little effect | ~6 µM | 
N#Cc1ccc(C(c2ccc(C#N)cc2)n2cncn2)cc1 [letrozole] |  |  |  |  | decreased sensitivity
CC/C(=C(\c1ccccc1)c1ccc(OCCN(C)C)cc1)c1ccccc1 [tamoxifen] |  |  |  |  | decreased sensitivity
